Laboratory results taken from patent US9278981B2, “Compounds and compositions for inhibiting the activity of ABL1, ABL2 and BCR-ABL1” (Novartis AG, priority 2012, dated 2016).

Key:
ABL1 (64-515) [1] = target: T1, ABL1 (64-515) (Homo sapiens (Human), UniProt P00519); assay: Caliper ABL1 (64-515) assay (microfluidic mobility shift); assay type: biochemical
ABL1 (64-515) [2] = target: T1, ABL1 (64-515); assay: Radio ABL1 (64-515) assay (radiometric filter-binding); assay type: biochemical
Ba/F3-BCR-ABL1-WT cells = assay: cells; conditions: Mus musculus, 48 h, read-out: Ba/F3-BCR-ABL1-WT IC50 [μM]
From the text: To generate Ba/F3 cells that depend on BCR-ABL1 expression for growth and survival, Ba/F3 cells were engineered to express BCR-ABL1 using retroviral transduction with a MSCV based retroviral vector containing a p210 BCR-ABL1 expression cassette. […] These cells are referred to as Ba/F3-BCR-ABL-WT.
Ba/F3-BCR-ABL1-WT cells and Ba/F3-BCR-ABL1-T315I cells were maintained in RPMI1640 media with L-glutamine, HEPES (Lonza) and 10% FBS (Gibco).
For each cell line, the cell density was adjusted to 50 000 cells/mL and 50 μL (2500 cells) added per well of a 384-well assay plate.
Test compounds were resuspended in DMSO at a concentration of 10 mM. A serial three-fold dilution of each compound with DMSO was performed in 384-well plates using the Janus Liquid Dispenser (PerkinElmer). Compound was delivered to the assay plates containing 2500 cells in a 50 μL volume via Acoustic delivery from an ATS-100 (EDC).
Cells were incubated at 37° C. in a humidified environment with 5% carbon dioxide for 48 hours. Britelite plus solution (Perkin Elmer) was prepared according to the manufacturer's instructions and 25 μL added to each well of the assay plate. […] The degree of luminescence correlates with the number of cells in each well. The effect of each inhibitor concentration can therefore be calculated and IC50 values generated.

BCR-ABL1+KCL-22 cells = assay: Acquired resistance in BCR-ABL1+KCL-22 cells in vitro; assay type: cell-based; conditions: cells treated every 3-4 days

T1 sequence (P00519 64-515): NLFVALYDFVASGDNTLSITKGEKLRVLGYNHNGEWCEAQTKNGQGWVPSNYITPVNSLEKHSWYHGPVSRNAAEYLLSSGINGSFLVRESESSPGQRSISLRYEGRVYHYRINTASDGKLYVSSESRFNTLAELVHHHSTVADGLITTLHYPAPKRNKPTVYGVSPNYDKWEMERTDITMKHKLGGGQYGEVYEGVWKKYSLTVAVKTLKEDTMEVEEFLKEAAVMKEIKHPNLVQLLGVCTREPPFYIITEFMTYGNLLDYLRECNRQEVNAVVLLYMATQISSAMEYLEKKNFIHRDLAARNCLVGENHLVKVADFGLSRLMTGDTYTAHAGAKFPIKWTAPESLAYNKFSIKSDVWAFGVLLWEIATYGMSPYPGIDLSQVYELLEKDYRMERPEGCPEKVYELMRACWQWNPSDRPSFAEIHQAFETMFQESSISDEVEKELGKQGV

Compound | IC50 (ABL1 (64-515) [1]) [pM] | IC50 (ABL1 (64-515) [2]) [pM] | IC50 (Ba/F3-BCR-ABL1-WT cells) [µM] | time until acquired resistance (BCR-ABL1+KCL-22 cells) [days]
N#Cc1cncc(-c2cc(C(=O)Nc3ccc(OC(F)(F)Cl)cc3)cnc2N2C[C@@H](O)[C@@H](O)C2)c1 [Example 268] | 400 | 500 | 0.0032 | –
N[C@H]1CN(c2ccc(C(=O)Nc3ccc(OC(F)(F)Cl)cc3)cc2-c2cncc(F)c2)C[C@@H]1O [Example 285, 4-((3S,4S)-3-Amino-4-hydroxypyrrolidin-1-yl)-N-(4-(chlorodifluoromethoxy)phenyl)-3-(5-fluoropyridin-3-yl)benzamide] | 600 | 1000 | 0.0053 | –
Cc1cn(-c2cc(NC(=O)c3ccc(C)c(Nc4nccc(-c5cccnc5)n4)c3)cc(C(F)(F)F)c2)cn1 [nilotinib] | – | – | – | 18 to 21
